The NIST ThermoML archive (doi:10.1021/je700294p)
± gives the expanded uncertainty stated by the source.

Legend:
[1] = refractive index (Na D-line) (dimensionless); details: 101.33 kPa, Liquid, Standard Abbe refractometry
[2] = 101.33 kPa, Liquid
[3] = xn = mol fraction of the nth substance listed; details: 101 kPa, Liquid
[4] = excess molar enthalpy (molar enthalpy of mixing); xn = mol fraction of the nth substance listed; details: 101 kPa, Liquid

CCCC[n+]1cccc(C)c1.F[B-](F)(F)F [1-butyl-3-methylpyridinium tetrafluoroborate]
refractive index ([1]; 298.15 K): 1.4473 ± 0.0005 | refractive index ([1]; 318.15 K): 1.4422 ± 0.0005 | mass density ([2]; 298.15 K): 1182.19 ± 0.89 kg/m3 | mass density ([2]; 318.15 K): 1168.31 ± 0.86 kg/m3

CCCC[n+]1cccc(C)c1.F[B-](F)(F)F [1-butyl-3-methylpyridinium tetrafluoroborate] + CCCCO
mass density ([3]; 298.15 K, x1 = 0.0166): 819.7 ± 0.7 kg/m3 | mass density ([3]; 298.15 K, x1 = 0.7641): 1136.6 ± 0.8 kg/m3 | mass density ([3]; 298.15 K, x1 = 0.8166): 1147.7 ± 0.8 kg/m3 | mass density ([3]; 298.15 K, x1 = 0.8558): 1155.7 ± 0.8 kg/m3 | mass density ([3]; 298.15 K, x1 = 0.904): 1165.1 ± 0.9 kg/m3 | mass density ([3]; 318.15 K, x1 = 0.0191): 805.5 ± 0.7 kg/m3 | mass density ([3]; 318.15 K, x1 = 0.6961): 1107.5 ± 0.8 kg/m3 | mass density ([3]; 318.15 K, x1 = 0.7777): 1125.9 ± 0.8 kg/m3 | mass density ([3]; 318.15 K, x1 = 0.8535): 1141.6 ± 0.9 kg/m3 | mass density ([3]; 318.15 K, x1 = 0.9084): 1152.1 ± 0.9 kg/m3 | mass density ([3]; 318.15 K, x1 = 0.9479): 1159.4 ± 0.9 kg/m3 | excess molar enthalpy ([4]; 318.15 K, x1 = 0.0098): 0.0361 ± 0.00143 kcal/mol | excess molar enthalpy ([4]; 318.15 K, x1 = 0.025): 0.0684 ± 0.00215 kcal/mol | excess molar enthalpy ([4]; 318.15 K, x1 = 0.0464): 0.138 ± 0.00359 kcal/mol | excess molar enthalpy ([4]; 318.15 K, x1 = 0.3603): 0.681 ± 0.0141 kcal/mol | excess molar enthalpy ([4]; 318.15 K, x1 = 0.3932): 0.684 ± 0.0141 kcal/mol | excess molar enthalpy ([4]; 318.15 K, x1 = 0.445): 0.677 ± 0.0141 kcal/mol | excess molar enthalpy ([4]; 318.15 K, x1 = 0.5101): 0.652 ± 0.0136 kcal/mol | excess molar enthalpy ([4]; 318.15 K, x1 = 0.5852): 0.591 ± 0.0122 kcal/mol | excess molar enthalpy ([4]; 318.15 K, x1 = 0.6705): 0.503 ± 0.0105 kcal/mol | excess molar enthalpy ([4]; 318.15 K, x1 = 0.7667): 0.378 ± 0.00813 kcal/mol | excess molar enthalpy ([4]; 318.15 K, x1 = 0.8531): 0.264 ± 0.00574 kcal/mol | excess molar enthalpy ([4]; 318.15 K, x1 = 0.9346): 0.125 ± 0.00311 kcal/mol

CCCC[n+]1cccc(C)c1.F[B-](F)(F)F [1-butyl-3-methylpyridinium tetrafluoroborate] + CCCO
mass density ([3]; 298.15 K, x1 = 0.016): 816.7 ± 0.7 kg/m3 | mass density ([3]; 298.15 K, x1 = 0.4528): 1066.5 ± 0.6 kg/m3 | mass density ([3]; 298.15 K, x1 = 0.494): 1079.3 ± 0.7 kg/m3 | mass density ([3]; 298.15 K, x1 = 0.5262): 1088.6 ± 0.7 kg/m3 | mass density ([3]; 298.15 K, x1 = 0.5959): 1106.9 ± 0.7 kg/m3 | mass density ([3]; 298.15 K, x1 = 0.6934): 1129.5 ± 0.8 kg/m3 | mass density ([3]; 298.15 K, x1 = 0.7543): 1141.9 ± 0.8 kg/m3 | mass density ([3]; 298.15 K, x1 = 0.7993): 1150.4 ± 0.8 kg/m3 | mass density ([3]; 298.15 K, x1 = 0.8582): 1160.4 ± 0.8 kg/m3 | mass density ([3]; 298.15 K, x1 = 0.8962): 1166.6 ± 0.9 kg/m3 | mass density ([3]; 318.15 K, x1 = 0.0143): 798.4 ± 0.8 kg/m3 | mass density ([3]; 318.15 K, x1 = 0.0249): 808.8 ± 0.8 kg/m3 | mass density ([3]; 318.15 K, x1 = 0.0477): 830.6 ± 0.8 kg/m3 | mass density ([3]; 318.15 K, x1 = 0.1003): 873.4 ± 0.7 kg/m3 | mass density ([3]; 318.15 K, x1 = 0.1222): 890.6 ± 0.7 kg/m3 | mass density ([3]; 318.15 K, x1 = 0.1492): 909.3 ± 0.6 kg/m3 | mass density ([3]; 318.15 K, x1 = 0.2): 940.8 ± 0.6 kg/m3 | mass density ([3]; 318.15 K, x1 = 0.2295): 957.5 ± 0.5 kg/m3 | mass density ([3]; 318.15 K, x1 = 0.3112): 997.8 ± 0.5 kg/m3 | mass density ([3]; 318.15 K, x1 = 0.4002): 1033.6 ± 0.5 kg/m3 | mass density ([3]; 318.15 K, x1 = 0.4285): 1043.6 ± 0.6 kg/m3 | mass density ([3]; 318.15 K, x1 = 0.4635): 1055.3 ± 0.6 kg/m3 | mass density ([3]; 318.15 K, x1 = 0.5638): 1084.7 ± 0.7 kg/m3 | mass density ([3]; 318.15 K, x1 = 0.6072): 1095.8 ± 0.7 kg/m3 | mass density ([3]; 318.15 K, x1 = 0.6405): 1103.5 ± 0.8 kg/m3 | mass density ([3]; 318.15 K, x1 = 0.7096): 1118.9 ± 0.8 kg/m3 | mass density ([3]; 318.15 K, x1 = 0.8001): 1136.9 ± 0.9 kg/m3 | mass density ([3]; 318.15 K, x1 = 0.8522): 1145.7 ± 0.9 kg/m3 | mass density ([3]; 318.15 K, x1 = 0.9028): 1154.2 ± 0.9 kg/m3 | excess molar enthalpy ([4]; 298.15 K, x1 = 0.0139): 0.039 ± 0.00143 kcal/mol | excess molar enthalpy ([4]; 298.15 K, x1 = 0.0242): 0.0564 ± 0.00191 kcal/mol | excess molar enthalpy ([4]; 298.15 K, x1 = 0.0278): 0.0681 ± 0.00191 kcal/mol | excess molar enthalpy ([4]; 298.15 K, x1 = 0.3397): 0.56 ± 0.0117 kcal/mol | excess molar enthalpy ([4]; 298.15 K, x1 = 0.3707): 0.56 ± 0.0117 kcal/mol | excess molar enthalpy ([4]; 298.15 K, x1 = 0.4045): 0.552 ± 0.0115 kcal/mol | excess molar enthalpy ([4]; 298.15 K, x1 = 0.4278): 0.544 ± 0.0115 kcal/mol | excess molar enthalpy ([4]; 298.15 K, x1 = 0.4642): 0.531 ± 0.011 kcal/mol | excess molar enthalpy ([4]; 298.15 K, x1 = 0.498): 0.506 ± 0.0105 kcal/mol | excess molar enthalpy ([4]; 298.15 K, x1 = 0.5458): 0.47 ± 0.0098 kcal/mol | excess molar enthalpy ([4]; 298.15 K, x1 = 0.5983): 0.416 ± 0.00884 kcal/mol | excess molar enthalpy ([4]; 298.15 K, x1 = 0.6621): 0.364 ± 0.00765 kcal/mol | excess molar enthalpy ([4]; 298.15 K, x1 = 0.7278): 0.298 ± 0.00645 kcal/mol | excess molar enthalpy ([4]; 298.15 K, x1 = 0.7939): 0.229 ± 0.00502 kcal/mol | excess molar enthalpy ([4]; 298.15 K, x1 = 0.8653): 0.164 ± 0.00382 kcal/mol | excess molar enthalpy ([4]; 298.15 K, x1 = 0.9335): 0.0973 ± 0.00239 kcal/mol | excess molar enthalpy ([4]; 318.15 K, x1 = 0.0232): 0.0997 ± 0.00263 kcal/mol | excess molar enthalpy ([4]; 318.15 K, x1 = 0.052): 0.185 ± 0.0043 kcal/mol | excess molar enthalpy ([4]; 318.15 K, x1 = 0.0852): 0.276 ± 0.00598 kcal/mol | excess molar enthalpy ([4]; 318.15 K, x1 = 0.1233): 0.371 ± 0.00789 kcal/mol | excess molar enthalpy ([4]; 318.15 K, x1 = 0.1608): 0.46 ± 0.0098 kcal/mol | excess molar enthalpy ([4]; 318.15 K, x1 = 0.2011): 0.534 ± 0.0115 kcal/mol | excess molar enthalpy ([4]; 318.15 K, x1 = 0.2044): 0.552 ± 0.0117 kcal/mol | excess molar enthalpy ([4]; 318.15 K, x1 = 0.2311): 0.583 ± 0.0122 kcal/mol | excess molar enthalpy ([4]; 318.15 K, x1 = 0.2591): 0.611 ± 0.0127 kcal/mol | excess molar enthalpy ([4]; 318.15 K, x1 = 0.2896): 0.634 ± 0.0131 kcal/mol | excess molar enthalpy ([4]; 318.15 K, x1 = 0.3223): 0.652 ± 0.0136 kcal/mol | excess molar enthalpy ([4]; 318.15 K, x1 = 0.3585): 0.663 ± 0.0136 kcal/mol | excess molar enthalpy ([4]; 318.15 K, x1 = 0.3982): 0.664 ± 0.0139 kcal/mol | excess molar enthalpy ([4]; 318.15 K, x1 = 0.4404): 0.655 ± 0.0136 kcal/mol | excess molar enthalpy ([4]; 318.15 K, x1 = 0.4891): 0.634 ± 0.0131 kcal/mol | excess molar enthalpy ([4]; 318.15 K, x1 = 0.5441): 0.598 ± 0.0124 kcal/mol | excess molar enthalpy ([4]; 318.15 K, x1 = 0.6073): 0.537 ± 0.0112 kcal/mol | excess molar enthalpy ([4]; 318.15 K, x1 = 0.674): 0.457 ± 0.00956 kcal/mol | excess molar enthalpy ([4]; 318.15 K, x1 = 0.7504): 0.361 ± 0.00765 kcal/mol | excess molar enthalpy ([4]; 318.15 K, x1 = 0.8323): 0.252 ± 0.0055 kcal/mol | excess molar enthalpy ([4]; 318.15 K, x1 = 0.9131): 0.143 ± 0.00335 kcal/mol
